{"source": "patent US20240269139A1", "about": "“COMPOUNDS FOR TARGETED PROTEIN DEGRADATION OF KINASES” (DANA-FARBER CANCER INSTITUTE, INC., priority 2020, published 2024)", "assay_type_in_all_cases": "cell-based", "key": {"[1]": {"molecular_target": "protein kinases (human kinome) (Homo sapiens, UniProt Q9BVS4)", "sequence (Q9BVS4 whole entry)": "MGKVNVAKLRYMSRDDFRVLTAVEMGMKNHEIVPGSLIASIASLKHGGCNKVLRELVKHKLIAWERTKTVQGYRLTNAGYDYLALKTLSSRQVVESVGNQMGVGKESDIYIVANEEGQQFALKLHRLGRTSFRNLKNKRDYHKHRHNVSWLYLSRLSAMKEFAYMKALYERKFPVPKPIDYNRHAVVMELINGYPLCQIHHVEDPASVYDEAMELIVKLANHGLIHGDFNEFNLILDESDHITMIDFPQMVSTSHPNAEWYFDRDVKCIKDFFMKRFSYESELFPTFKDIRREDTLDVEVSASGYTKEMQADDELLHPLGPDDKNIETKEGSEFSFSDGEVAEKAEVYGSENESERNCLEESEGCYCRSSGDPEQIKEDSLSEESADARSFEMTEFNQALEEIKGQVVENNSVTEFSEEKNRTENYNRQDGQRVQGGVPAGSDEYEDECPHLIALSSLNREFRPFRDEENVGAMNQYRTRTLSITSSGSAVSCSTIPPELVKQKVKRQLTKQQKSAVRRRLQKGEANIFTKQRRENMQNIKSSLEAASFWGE", "conditions": "RIOK2 Q9BVS4"}, "[2]": {"molecular_target": "protein kinases (human kinome) (Homo sapiens, UniProt Q16659)", "sequence (Q16659 whole entry)": "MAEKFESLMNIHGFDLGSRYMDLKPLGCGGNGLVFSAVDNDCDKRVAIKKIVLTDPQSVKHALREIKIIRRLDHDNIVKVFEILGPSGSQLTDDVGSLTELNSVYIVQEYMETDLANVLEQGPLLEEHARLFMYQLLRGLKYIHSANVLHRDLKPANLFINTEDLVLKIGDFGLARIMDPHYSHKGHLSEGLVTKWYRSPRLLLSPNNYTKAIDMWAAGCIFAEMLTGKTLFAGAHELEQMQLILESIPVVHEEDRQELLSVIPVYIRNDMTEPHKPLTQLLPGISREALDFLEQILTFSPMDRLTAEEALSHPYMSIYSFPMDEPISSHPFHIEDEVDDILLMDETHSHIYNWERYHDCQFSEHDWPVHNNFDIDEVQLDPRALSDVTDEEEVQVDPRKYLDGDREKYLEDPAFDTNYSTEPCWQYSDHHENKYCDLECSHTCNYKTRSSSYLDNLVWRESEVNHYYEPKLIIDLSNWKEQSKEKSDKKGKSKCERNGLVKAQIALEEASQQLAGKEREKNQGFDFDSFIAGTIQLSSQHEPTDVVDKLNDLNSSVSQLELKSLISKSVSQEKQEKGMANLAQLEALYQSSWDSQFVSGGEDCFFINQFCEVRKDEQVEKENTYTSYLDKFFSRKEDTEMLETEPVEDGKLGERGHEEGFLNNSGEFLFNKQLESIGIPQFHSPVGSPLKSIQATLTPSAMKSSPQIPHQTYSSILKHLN", "conditions": "MAPK6 (Q16659), experiment wp131"}, "[3]": {"molecular_target": "protein kinases (human kinome) (Homo sapiens, UniProt Q15131)", "sequence (Q15131 whole entry)": "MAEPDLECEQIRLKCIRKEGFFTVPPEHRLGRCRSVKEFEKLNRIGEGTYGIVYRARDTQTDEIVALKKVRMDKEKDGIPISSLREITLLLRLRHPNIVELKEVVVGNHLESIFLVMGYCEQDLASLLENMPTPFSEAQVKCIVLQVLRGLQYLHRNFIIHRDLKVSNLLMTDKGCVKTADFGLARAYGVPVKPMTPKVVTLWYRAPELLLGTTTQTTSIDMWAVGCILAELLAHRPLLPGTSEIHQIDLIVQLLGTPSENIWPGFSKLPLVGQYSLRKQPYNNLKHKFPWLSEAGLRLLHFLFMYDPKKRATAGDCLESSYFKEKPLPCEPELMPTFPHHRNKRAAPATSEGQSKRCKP", "conditions": "experiment wp131"}, "[4]": {"molecular_target": "T1, protein kinases (human kinome) (Homo sapiens, UniProt P42680)", "T1 sequence (P42680 1-631)": "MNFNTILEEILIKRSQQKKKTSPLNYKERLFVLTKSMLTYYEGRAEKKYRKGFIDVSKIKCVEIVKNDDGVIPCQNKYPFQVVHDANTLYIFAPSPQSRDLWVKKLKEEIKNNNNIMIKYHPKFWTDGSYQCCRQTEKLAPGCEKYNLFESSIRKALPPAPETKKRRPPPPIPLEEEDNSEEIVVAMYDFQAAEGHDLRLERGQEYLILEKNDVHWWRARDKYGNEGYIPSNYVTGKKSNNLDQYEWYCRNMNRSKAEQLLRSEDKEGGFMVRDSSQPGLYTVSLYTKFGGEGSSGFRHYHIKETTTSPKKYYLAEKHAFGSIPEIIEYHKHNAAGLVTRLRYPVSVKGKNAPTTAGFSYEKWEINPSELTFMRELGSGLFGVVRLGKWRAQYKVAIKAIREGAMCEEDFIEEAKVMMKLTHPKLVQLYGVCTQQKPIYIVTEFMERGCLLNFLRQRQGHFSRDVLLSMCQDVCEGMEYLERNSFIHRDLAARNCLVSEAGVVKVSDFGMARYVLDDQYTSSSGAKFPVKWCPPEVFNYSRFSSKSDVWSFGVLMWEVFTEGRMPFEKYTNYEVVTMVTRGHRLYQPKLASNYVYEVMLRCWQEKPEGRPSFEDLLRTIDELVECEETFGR", "conditions": "TEC (P42680), experiment wp137"}}, "note": "Read-outs that look alike come from different tables or passages of the source.", "data": [{"smiles": "CC(C)S(=O)(=O)c1ccccc1Nc1nc(Nc2ccc(N3CCN(CCOCCOCCNC(=O)CNc4cccc5c4C(=O)N(C4CCC(=O)NC4=O)C5=O)CC3)cc2)ncc1Cl", "note": "(stereo not shown) [TL12.186]", "values": [{"measurement": "logFC", "setting": "[1]; experiment wp131", "value": "−0.9134"}, {"measurement": "logFC RIOK2", "setting": "[1]; experiment wp131", "value": "−0.9134"}, {"measurement": "logFC", "setting": "[1]; experiment wp137", "value": "−0.7728"}, {"measurement": "logFC RIOK2", "setting": "[1]; experiment wp137", "value": "−0.7728"}, {"measurement": "logFC", "setting": "[2]", "value": "−1.488"}, {"measurement": "logFC", "setting": "[2]; direction down", "value": "−1.488"}, {"measurement": "logFC", "setting": "[3]; CDK10 (Q15131-1)", "value": "−0.935"}, {"measurement": "logFC of CDK10 (Q15131-1)", "setting": "[3]", "value": "−0.935"}, {"measurement": "logFC", "setting": "[4]", "value": "−2.11"}, {"measurement": "logFC", "setting": "[4]; direction down", "value": "−2.11"}]}]}
